# Laboratory results published in paper PMC3973950, “Synthesis of 5-arylidine amino-1,3,4-thiadiazol-2-[(N-substituted benzyol)]sulphonamides endowed with potent antioxidants and anticancer activity induces growth inhibition in HEK293, BT474 and NCI-H226 cells” (Medicinal Chemistry Research, 2013).
# Tests used:
# [1] = system: BT474 (breast cancer cell line); assay: In vitro cytotoxicity by MTT assay, BT474; assay type: cell-based; details: Homo sapiens, 72 h; for cytotoxicity at 0.005 µM: BT-474, 0.005 μM; for cytotoxicity at 0.005 µM / cytotoxicity at 0.015 µM / cytotoxicity at 0.045 µM / cytotoxicity at 0.13 µM / cytotoxicity at 0.41 µM / cytotoxicity at 1.23 µM / cytotoxicity at 3.7 µM / cytotoxicity at 11.11 µM / cytotoxicity at 33.33 µM / cytotoxicity at 100 µM: read-out: % cytotoxicity (100 − % cell survival) of BT474 cell line; for cytotoxicity at 0.015 µM: BT-474, 0.015 μM; for cytotoxicity at 0.045 µM: BT-474, 0.045 μM; for cytotoxicity at 0.13 µM: BT-474, 0.13 μM; for cytotoxicity at 0.41 µM: BT-474, 0.41 μM; for cytotoxicity at 1.23 µM: BT-474, 1.23 μM; for cytotoxicity at 3.7 µM: BT-474, 3.7 μM; for cytotoxicity at 11.11 µM: BT-474, 11.11 μM; for cytotoxicity at 33.33 µM: BT-474, 33.33 μM; for cytotoxicity at 100 µM: BT-474, 100 μM
# Description: (§1) The cancer cell line cultures of HEK 293 ([…]), BT474 (breast cancer cell line) and NCI-H226 (lung cancer) were obtained from Pasteur Institute of India, Coonoor, India, and were cultured in RPMI-1640 and 10 % heat-[…] New born calf serum with antibiotics [penicillin ([…]), streptomycin (100 μg/mL) and amphotericin B (25 μg/mL)]. The cells were maintained at 37 °C in a humidified atmosphere with 5 % CO2 and were subcultured twice a week.
# (§2) The monolayer cell culture (100 μL) was trypsinized, and the cell count was adjusted to […] using medium containing 10 % new born calf serum. To each well of the 96-well microtitre plate, the diluted cell suspension (approximately 10,000 cells) (0.1 mL) was added and kept for 24 h in incubator at 37 °C in 5 % CO2 atmosphere for cell monolayer formation. After 24 h, when a partial monolayer was formed at the bottom of the well, the supernatant was flicked off, the monolayer was washed once, and different drugs, i.e. synthesized compounds (100 μL), were added to the cells in microtitre plates. The plates were then incubated at 37 °C for 3 days in 5 % CO2 atmosphere, and microscopic examination was carried out and observations recorded every 24 h. After 72 h, the sample solution in the wells was flicked off; MTT dye ([…]) was added to each well; plates were gently shaken and incubated for 4 h at 37 °C in 5 % CO2 incubator. The supernatant was removed and propanol (50 μL) was added; the plates were gently shaken to solubilize the formed formazan. The absorbance was measured using a microplate reader at a wavelength of 490 nm (Edmondson et al., [1988]; Prasad et al., [2005]; Chiruvella et al., [2008]; Chang et al., [2007]).
# [2] = In vitro cytotoxicity by MTT assay, HEK 293; assay type: cell-based, human; details: human, HEK 293 cells, read-out: % cytotoxicity (100 − % cell survival) of HEK 293 cell line
# Description: as §1, §2
# [3] = system: NCI-H226 (lung cancer cell line); assay: In vitro cytotoxicity by MTT assay, NCI-H226; assay type: cell-based; details: Homo sapiens, 72 h, read-out: % Cytotoxicity (100 − % cell survival) of NCI-H226 cell line; for cytotoxicity at 0.005 µM: NCI-H226, 0.005 μM; for cytotoxicity at 0.045 µM: NCI-H226, 0.045 μM; for cytotoxicity at 0.13 µM: NCI-H226, 0.13 μM; for cytotoxicity at 0.41 µM: NCI-H226, 0.41 μM; for cytotoxicity at 1.23 µM: NCI-H226, 1.23 μM; for cytotoxicity at 3.7 µM: NCI-H226, 3.7 μM; for cytotoxicity at 11.11 µM: NCI-H226, 11.11 μM; for cytotoxicity at 33.33 µM: NCI-H226, 33.33 μM; for cytotoxicity at 100 µM: NCI-H226, 100 μM
# Description: as §1, §2
# [4] = In vitro cytotoxicity by MTT assay, NCI-H226; assay type: cell-based; details: human, NCI-H226 lung cancer cells, 0.015 μM, read-out: % Cytotoxicity (100 − % cell survival) of NCI-H226 cell line
# Description: as §1, §2
Structure (SMILES),cytotoxicity at 0.005 µM [1] [%],cytotoxicity at 0.015 µM [1] [%],cytotoxicity at 0.045 µM [1] [%],cytotoxicity at 0.13 µM [1] [%],cytotoxicity at 0.41 µM [1] [%],cytotoxicity at 1.23 µM [1] [%],cytotoxicity at 3.7 µM [1] [%],cytotoxicity at 11.11 µM [1] [%],cytotoxicity at 33.33 µM [1] [%],cytotoxicity at 100 µM [1] [%],"cytotoxicity at 72 h, 0.005 µM [2] [%]","cytotoxicity at 72 h, 0.015 µM [2] [%]","cytotoxicity at 72 h, 0.045 µM [2] [%]","cytotoxicity at 72 h, 0.13 µM [2] [%]","cytotoxicity at 72 h, 0.41 µM [2] [%]","cytotoxicity at 72 h, 1.23 µM [2] [%]","cytotoxicity at 72 h, 3.7 µM [2] [%]","cytotoxicity at 72 h, 11.11 µM [2] [%]","cytotoxicity at 72 h, 33.33 µM [2] [%]","cytotoxicity at 72 h, 100 µM [2] [%]",also measured
Nc1nnc(S(=O)(=O)NC(=O)c2ccc([N+](=O)[O-])cc2)s1 [Compound 4e],30.9,31,31.8,32.3,33.1,35.7,37,37.2,38.9,40.4,30.6,31.6,34.1,34.8,35.4,37.1,38.9,39.1,40,40.2,"cytotoxicity at 0.005 µM [3]: 27.3%; cytotoxicity at 0.045 µM [3]: 28.9%; cytotoxicity at 0.13 µM [3]: 29.6%; cytotoxicity at 0.41 µM [3]: 29.9%; cytotoxicity at 1.23 µM [3]: 30.6%; cytotoxicity at 3.7 µM [3]: 31.3%; cytotoxicity at 11.11 µM [3]: 32.2%; cytotoxicity at 33.33 µM [3]: 33.3%; cytotoxicity at 100 µM [3]: 34.6%; cytotoxicity at 72 h, 0.015 µM [4]: 28.1%"
Nc1nnc(S(=O)(=O)NC(=O)c2cccc([N+](=O)[O-])c2)s1 [Compound 4f],37.6,39,41.3,43.8,45.3,48.5,50.1,52.4,55.3,59.3,24.3,26.4,28.1,28.4,28.9,29.2,30,30.7,31.2,32,"CC50 ([1]; BT-474, BT474, concentration at which 50 % of the cells are dead, read-out: CTC50 (cytotoxicity concentration)): 1560 nM; cytotoxicity at 0.005 µM [3]: 37.2%; cytotoxicity at 0.045 µM [3]: 39.7%; cytotoxicity at 0.13 µM [3]: 41.6%; cytotoxicity at 0.41 µM [3]: 42.9%; cytotoxicity at 1.23 µM [3]: 45.8%; cytotoxicity at 3.7 µM [3]: 46.5%; cytotoxicity at 11.11 µM [3]: 48.3%; cytotoxicity at 33.33 µM [3]: 50.1%; cytotoxicity at 100 µM [3]: 52.9%; cytotoxicity at 72 h, 0.015 µM [4]: 38.6%"
Nc1nnc(S(=O)(=O)NC(=O)c2ccc(Cl)cc2)s1 [Compound 4g],30.6,31.4,32.1,33.2,34.1,34.9,35.2,36.2,37.8,38.2,39.3,40.5,41.2,43.7,45.1,45.6,46.4,47.1,48.7,50.2,"cytotoxicity at 0.005 µM [3]: 35.8%; cytotoxicity at 0.045 µM [3]: 37%; cytotoxicity at 0.13 µM [3]: 37.1%; cytotoxicity at 0.41 µM [3]: 37.8%; cytotoxicity at 1.23 µM [3]: 38.1%; cytotoxicity at 3.7 µM [3]: 39.4%; cytotoxicity at 11.11 µM [3]: 40.3%; cytotoxicity at 33.33 µM [3]: 41.4%; cytotoxicity at 100 µM [3]: 41.8%; cytotoxicity at 72 h, 0.015 µM [4]: 36.1%"
CC(=O)Nc1ccc(S(=O)(=O)Nc2nnc(S(=O)(=O)NC(=O)c3ccccc3)s2)cc1 [Compound 6a],26,27.2,28,28.6,29.8,30.4,30.9,31.3,32.1,32.7,26.5,26.8,28.2,29.9,30.1,32.2,33.6,35,35.2,35.4,"cytotoxicity at 0.005 µM [3]: 30.5%; cytotoxicity at 0.045 µM [3]: 32.2%; cytotoxicity at 0.13 µM [3]: 32.9%; cytotoxicity at 0.41 µM [3]: 33.6%; cytotoxicity at 1.23 µM [3]: 35.6%; cytotoxicity at 3.7 µM [3]: 36%; cytotoxicity at 11.11 µM [3]: 38.2%; cytotoxicity at 33.33 µM [3]: 38.9%; cytotoxicity at 100 µM [3]: 40.9%; cytotoxicity at 72 h, 0.015 µM [4]: 31.6%"
CC(=O)Nc1ccc(S(=O)(=O)Nc2nnc(S(=O)(=O)NC(=O)c3ccc(N)cc3)s2)cc1 [Compound 6c],33.1,33.3,34.1,35,35.4,36.7,37.1,37.9,38.2,39.4,30.5,32,32.9,33.6,34.8,35.7,36.6,37.8,38.2,38.8,"cytotoxicity at 0.005 µM [3]: 30.4%; cytotoxicity at 0.045 µM [3]: 33.6%; cytotoxicity at 0.13 µM [3]: 34.1%; cytotoxicity at 0.41 µM [3]: 34.8%; cytotoxicity at 1.23 µM [3]: 34.9%; cytotoxicity at 3.7 µM [3]: 35.1%; cytotoxicity at 11.11 µM [3]: 36.5%; cytotoxicity at 33.33 µM [3]: 38.3%; cytotoxicity at 100 µM [3]: 39%; cytotoxicity at 72 h, 0.015 µM [4]: 32.8%"
